Data from patent US20210401809A1, “PHARMACEUTICAL COMPOUNDS” (Sareum Limited, priority 2016, published 2021).
Each block holds one compound with its values, some of them ahead of it.

Experiments:
[1] = test system: PARP cleavage in MOLT-4 cells; assay: Western blot assay, chronic compound treatment; type: cell-based; details: 48 hrs, tested 0.03-3 μM, FIG. 2
Protocol: MOLT-4 cells were treated with Compounds 25 and 29 (of Example 1) and three benchmark inhibitors (GLPG0634 (Filgotinib, developed by Galapagos), TG101209 and GDC-046) as comparative examples at five concentrations (3, 1, 0.3, 0.1 and 0.03 μM), for 48 hrs.
Cell lysates were analysed by Western blot and probed with antibodies against PARP and Actin.
The details of the antibodies used are set out in the table below.
Protocol • Cell were plated in 6-well plates at 4e6 cells per well in 6 ml of media (RPMI+10% FBS) and incubated for at least 1 h at 37° C., 5% CO2. • Cells were treated with the indicated concentrations of compounds for 48 hrs. • Cells were harvested by centrifuging at 12,000 rpm for 1 min (4° C.), washed in ice cold PBS and centrifuged again at 12,000 rpm for 1 min (4° C.). • The supernatant was removed and the cell pellet snap frozen on dry ice. • Cells were lysed in RIPA buffer (with protease and phosphatase inhibitors) and incubated on ice for 30 min. • Cellular debris was pelleted at 13,000 rpm for 5 min at 4° C., supernatant was transferred to a fresh tube. • Protein concentration was estimated using a BCA assay. • 30 μg of protein was loaded onto 4-12% NuPAGE Novex Bis-Tris protein gels (MOPs buffer). • Protein was transferred to a PVDF membrane using dry transfer (iBlot) and western blotting performed against the antigens of interest.

[2] = test system: CCRF-CEM cells (TYK2-dependent T-ALL); assay: Cell proliferation assay (ATPlite, 7 days); type: cell-based; details: Homo sapiens, 168 h
Protocol: (§1) Jurkat, MOLT-4, CCRF-CEM and CCRF-HSB-2 cells are all TYK2-dependent T-ALL cells. Loucy cells are TYK2-independent T-ALL cell lines. Dexamethasone, Etoposide and Paclitaxel were used as positive controls. Compound effects were studied 7 days after compound addition […] Luminescent product was detected using a BMG FLUOstar plate reader. • The data were analysed using a 4-parameter logistic equation in GraphPad Prism.

[3] = test system: CCRF-HSB-2 cells (TYK2-dependent T-ALL); assay: Cell proliferation assay (ATPlite, 7 days); type: cell-based; details: Homo sapiens, CCRF-HSB-2, 168 h
Protocol: as §1

[4] = test system: Jurkat cells (TYK2-dependent T-ALL); assay: Cell proliferation assay (ATPlite, 7 days); type: cell-based; details: Homo sapiens, 168 h
Protocol: as §1

[5] = test system: Loucy cells (TYK2-independent T-ALL); assay: Cell proliferation assay (ATPlite, 7 days); type: cell-based; details: 168 h
Protocol: as §1

[6] = test system: MOLT-4 cells (TYK2-dependent T-ALL); assay: Cell proliferation assay (ATPlite, 7 days); type: cell-based; details: Homo sapiens, MOLT-4, 168 h
Protocol: as §1

[7] = test system: pSTAT1, pTYK2, cleaved PARP in MOLT-4 tumours; assay: PKPD study: Western blot of tumour tissue; type: in vivo, male SCID mice; details: FIG. 6
Protocol: (§2) Male SCID mice were implanted with MOLT-4 tumour cells (1×10^7 in 50% matrigel). When tumours reached approximately 150 mm^3 animals received a single dose of test compound. Animals to be sampled at 24 hrs also received a second dose at 12 hrs.
(§3) At 1, 6 and 24 h animals were sacrificed and plasma prepared. Tumour tissue was removed and divided into 2 sections—one for bioanalysis and the second for homogenisation for western blotting.
Tumour tissue was homogenised in lysis buffer supplemented with protease and phosphatase inhibitors. Protein in individual samples was quantified using a commercially available BCA kit.
50 μg total protein was run on a 4-20% pre-cast gel and transferred to PVDF membrane before being incubated with the following antibodies: • pSTAT1 • STAT1 • pTYK2 • TYK2 • Cleaved PARP • B-actin • Anti-rabbit IgG

MOLT-4 tumours = assay: Efficacy study in mice bearing MOLT-4 tumours (Example 7); type: in vivo, male SCID mice; details: 21 days; for effect on MOLT-4 tumour growth: FIG. 7
From the text: MOLT-4 cells (1×10^7 in matrigel) were implanted onto the rear dorsum of male SCID mice using a 25-gauge needle. When tumours reached approximately 100 mm^3 the mice were randomly assigned to the following treatment groups.

[8] = PKPD study: plasma and tumour concentrations; type: in vivo, male SCID mice; details: MOLT-4 tumour-bearing mice
Protocol: as §2, §3

JAK1 = target: T1, JAK1 (Homo sapiens, UniProt P23458); assay: In vitro enzyme inhibition, 33P-ATP filter kinase assay (Reaction Biology); type: biochemical
T1 construct: 866-1154; GST (N); purchased Reaction Biology Corp. (contract assay); host or cells: Baculovirus in Sf21 insect cells
T1 sequence (P23458 866-1154): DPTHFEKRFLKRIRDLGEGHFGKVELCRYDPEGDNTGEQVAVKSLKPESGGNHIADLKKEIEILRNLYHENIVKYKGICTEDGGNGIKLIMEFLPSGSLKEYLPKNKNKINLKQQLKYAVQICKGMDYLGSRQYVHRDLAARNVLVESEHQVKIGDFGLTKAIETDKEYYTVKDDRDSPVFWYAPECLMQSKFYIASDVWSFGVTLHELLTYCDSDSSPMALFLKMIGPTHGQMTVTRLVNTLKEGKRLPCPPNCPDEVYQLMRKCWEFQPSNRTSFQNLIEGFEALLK
Protocol: (§4) Compounds of the invention were assayed for their ability to inhibit TYK2 kinase and other JAK kinases.
(§5) Substrates and kinases used in the assays are identified in Table 2 below.
(§6) JAK3tide=[Ac-[…]-NH2]

TYK2 kinase = target: T2, TYK2 kinase (Homo sapiens, UniProt P29597); assay: as above; type: biochemical
T2 construct: 833-1187; GST (N); purchased Reaction Biology Corp. (contract assay); host or cells: Baculovirus in Sf21 insect cells
T2 sequence (P29597 833-1187): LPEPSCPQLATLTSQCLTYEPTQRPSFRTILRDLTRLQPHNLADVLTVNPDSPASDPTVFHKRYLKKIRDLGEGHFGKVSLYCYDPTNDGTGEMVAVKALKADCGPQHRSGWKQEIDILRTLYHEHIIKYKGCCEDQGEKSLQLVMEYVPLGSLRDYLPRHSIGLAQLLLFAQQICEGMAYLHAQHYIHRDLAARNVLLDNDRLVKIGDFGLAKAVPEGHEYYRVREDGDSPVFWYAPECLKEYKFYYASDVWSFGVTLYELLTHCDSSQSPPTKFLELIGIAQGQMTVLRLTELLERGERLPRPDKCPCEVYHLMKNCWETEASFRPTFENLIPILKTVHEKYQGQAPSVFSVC
Protocol: as §4, §5, §6

JAK3 = target: T3, JAK3 (Homo sapiens, UniProt P52333); assay: as above; type: biochemical
T3 construct: 781-1124; GST (N); purchased Reaction Biology Corp. (contract assay); host or cells: Baculovirus in Sf21 insect cells
T3 sequence (P52333 781-1124): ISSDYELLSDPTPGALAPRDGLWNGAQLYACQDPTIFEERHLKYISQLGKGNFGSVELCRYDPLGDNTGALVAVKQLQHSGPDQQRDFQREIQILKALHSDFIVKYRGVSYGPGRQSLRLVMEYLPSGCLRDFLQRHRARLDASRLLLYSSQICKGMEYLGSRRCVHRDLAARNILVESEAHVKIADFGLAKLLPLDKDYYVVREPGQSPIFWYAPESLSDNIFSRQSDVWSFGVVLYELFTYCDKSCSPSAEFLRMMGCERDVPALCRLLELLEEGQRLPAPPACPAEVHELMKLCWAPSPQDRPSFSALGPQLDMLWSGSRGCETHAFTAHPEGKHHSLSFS
Protocol: as §4, §5, §6

MOLT-4 xenografts = assay: Tumour growth delay study in mice bearing MOLT-4 xenografts (Example 9); type: in vivo, male SCID mice
Protocol: (§7) A total of 50 male SCID mice aged 5-7 weeks were used for the study. These were bred in-house at Axis Bioservices. Animals were housed in IVC cages (up to 5 per cage) with individual mice identified by tail mark. All animals were allowed free access to a standard certified commercial diet and sanitised water during the study. The holding room was maintained under standard conditions: 20-24° C., 40-70% humidity and a 12 h light/dark cycle.
(§8) MOLT-4 cells (1×10^7 in matrigel) were implanted onto the rear dorsum of male SCID mice using a 25-gauge needle. When tumours reached approximately 100-150 mm^3 the mice were randomly assigned to the following treatment groups.
(§9) Dosing solutions were prepared on the day of study.
(§10) The formulation for cyclophosphamide was PBS at a dosing volume of 10 ml/kg based on animal weight on day of dosing.
(§11) For combination dosing, both compounds were dosed at the same time.

[9] = Animal bodyweight in MOLT-4 xenograft study (Example 9); type: in vivo, male SCID mice; details: 25 and 50 mg/kg BID PO, 21 days
Protocol: as §7, §8, §9, §10, §11

CCRF-HSB-2 tumours = assay: Tumour growth delay study in mice bearing CCRF-HSB-2 tumours (Example 8); type: in vivo, male SCID mice; details: for T/C (test versus control) at the end of the study period: 18 days
Protocol: as §9

[10] = 150 mg/kg Q5D IP
Protocol: A total of 40 male SCID mice aged 5-7 weeks were used for the study. These were purchased from Charles River and allowed to acclimatize for 7 days prior to tumour implantation. Animals were housed in IVC cages (up to 5 per cage) with individual mice identified by tail mark. All animals were allowed free access to a standard certified commercial diet and sanitised water during the study. The holding room was maintained under standard conditions: 20-24° C., 40-70% humidity and a 12 h light/dark cycle.
CCRF-HSB-2 cells (5×10^6 in matrigel) were implanted onto the rear dorsum of male SCID mice using a 25-gauge needle. When tumours reached a size of approximately 100-150 mm^3 the mice were randomly assigned to the following treatment groups.
Dosing solutions were prepared on the day of study. Formulation was 0.5% methylcellulose/0.025% Tween-20 at dosing volume of 10 ml/kg based on animal weight on day of dosing. Animals were dosed orally twice daily (12 hours apart) for 18 consecutive days.

[11] = test system: TYK2-independent cell line (LOUCY); details: Sanda et al.; cited from earlier work
[12] = test system: TYK2 dependent cell lines (T-ALL cells); details: Sanda et al.; read-out: IC50 for inhibiting growth of TYK2 dependent cell lines; cited from earlier work

IC50 [2]: 0.38 µM
IC50 [3]: 0.43 µM
IC50 [4]: 0.15 µM
IC50 [6]: 0.27 µM
maximal concentration in plasma ([8]; plasma, single dose, FIG. 4): > 4000 ng/mL
time of maximal exposure in plasma after dosing ([8]; plasma, single dose, FIG. 4): one
maximal concentration in tumour tissue ([8]; tumour tissue, FIG. 5): > 3000 ng per gram of tumour tissue
time of maximal exposure in tumour tissue after dosing ([8]; tumour tissue, FIG. 5): six
IC50 (JAK1): 28.9 nM
IC50 (TYK2 kinase): 0.564 nM
IC50 (JAK3): 43.2 nM
Compound: NC(=O)c1nc(-c2c(F)cccc2Cl)oc1Nc1ccc(C(=O)N2CCOCC2)cc1 [Compound 25, 2-(2-chloro-6-fluoro-phenyl)-5-[4-(morpholine-4-carbonyl)-phenylamino]-oxazole-4-carboxylic acid amide]
concentrations at which cleaved PARP is present (apoptosis) [1]: ≥ 1 µM
IC50 [5]: 0.35 µM
level of phosphorylated STAT1 in tumour ([7]; MOLT-4 tumour tissue at 1, 6, 24 h vs vehicle): reduction in level of phosphorylated STAT1 at t=1 h, returning to normal in comparison with vehicle treated controls between 6 and 24 h
cleaved Parp in tumour ([7]; MOLT-4 tumour tissue, relative to vehicle treated controls): An increase in cleaved Parp, relative to vehicle treated controls, was observed between 1 and 24 h
Phosphorylated TYK2 levels in tumour ([7]; MOLT-4 tumour tissue, second dose at 12 hrs): increased at 24 h following the initial dose
T/C (test versus control), tumour volume, end of study (MOLT-4 tumours; 25 mg/kg BID per os): 63.5%
T/C (test versus control), tumour weight, end of study (MOLT-4 tumours; 25 mg/kg BID per os): 60.7%
effect on MOLT-4 tumour growth (MOLT-4 tumours; 25 mg/kg BID per os): slowing growth but not resulting in tumour regression
T/C (test versus control), tumour volume, end of study (MOLT-4 tumours; 50 mg/kg BID per os): 27.0%
T/C (test versus control), tumour weight, end of study (MOLT-4 tumours; 50 mg/kg BID per os): 24.0%
effect on MOLT-4 tumour growth (MOLT-4 tumours; 50 mg/kg BID per os): tumour regression

IC50 [2]: 1.8 µM
IC50 [3]: 1.4 µM
IC50 [4]: 0.6 µM
IC50 [6]: 1.2 µM
bodyweight during the study [9]: maintained at pre-treatment levels
IC50 (JAK1): 16.8 nM
IC50 (TYK2 kinase): 0.617 nM
IC50 (JAK3): 90.8 nM
Compound: NC(=O)c1nc(-c2c(Cl)cccc2Cl)oc1Nc1ccc(C(=O)N2CCOCC2)cc1 [Compound 29, 2-(2,6-dichloro-phenyl)-5-[4-(morpholine-4-carbonyl)-phenylamino]-oxazole-4-carboxylic acid amide]
concentrations at which cleaved PARP is present (apoptosis) [1]: ≥ 3 µM
IC50 [5]: 1.7 µM
T/C (test versus control) at the end of the study period (MOLT-4 xenografts; 25 mg/kg BID PO, 21 days): 26.8%
T/C (test versus control) at the end of the study period (MOLT-4 xenografts; 50 mg/kg BID PO, 21 days): 16.6%
T/C (test versus control) at the end of the study period (CCRF-HSB-2 tumours; 25 mg/kg BID PO): 18.1%
T/C (test versus control) at the end of the study period (CCRF-HSB-2 tumours; 50 mg/kg BID PO): 10.8%
control of CCRF-HSB-2 tumour growth (CCRF-HSB-2 tumours; 25 and 50 mg/kg BID PO, similar inhibition at both doses (p=0.6397), FIG. 8): good efficacy in controlling CCRF-HSB-2 tumour growth
tumour weight at Day 18 versus vehicle only (CCRF-HSB-2 tumours; 25 and 50 mg/kg BID, p<0.0001, FIG. 9): significantly smaller

Compound: O=P1(N(CCCl)CCCl)NCCCO1 (stereo not drawn) [cyclophosphamide, reference compound]
T/C (test versus control) at the end of the study period (MOLT-4 xenografts; 150 mg/kg Q5D IP): 26.2%
animal bodyweight [10]: lost weight this was not significant
T/C (test versus control), tumour volume, end of study (MOLT-4 tumours; 150 mg/kg Q5D): 51.7%
T/C (test versus control), tumour weight, end of study (MOLT-4 tumours; 150 mg/kg Q5D): 49.0%
T/C (test versus control) at the end of the study period (CCRF-HSB-2 tumours; 150 mg/kg Q5D IP): 5.9%

Compound: JAK Inhibitor I
sensitivity of TYK2-independent cell line (LOUCY) [11]: insensitive
IC50 [12]: 1000 to 3000 nM
